From article PMC11755529, “Chlorpyrifos Acts as a Positive Modulator and an Agonist of N-Methyl-D-Aspartate (NMDA) Receptors: A Novel Mechanism of Chlorpyrifos-Induced Neurotoxicity” (Journal of Xenobiotics, 2025)
Like-named read-outs stand apart in the source and are kept apart here.

How the values were obtained:
[1] = tested on: 4-week differentiated ReNcell CX cells; experiment: Three-color fluorescence (FDA/PI) live, dead and apoptotic cell staining; format: cell-based, human; conditions: 24 h
Procedure: (§1) The human neural progenitor ReNcell CX cell line (Merck Millipore, Watford, UK) is a neural stem cell line derived from the developing human fetal brain cortex ([…]) at 14 weeks of gestational age. The ReNcell CX cell line was expanded on laminin-coated flasks (20 μg/mL; Sigma-Aldrich, Poole, UK) in ReNcell Neural Stem Cell (NSC) Maintenance Medium (Merck Millipore, Watford, UK) containing fresh EGF (20 ng/mL; Merck Millipore, Watford, UK) and FGF-b (20 ng/mL; Merck Millipore, Watford, UK). Cultures were incubated at 37 °C in a 95% humidified atmosphere of 5% CO2. ReNcell CX neural progenitor cells were differentiated into a co-culture of neurons, astrocytes, and oligodendrocytes by replacing the complete ReNcell CX medium with EGF- and FGF-b-free medium; with the differentiation medium refreshed every 2 days throughout the 4-week differentiation period.
(§2) A three-color fluorescence assay was performed as described by Kim et al.. Non-fluorescent fluorescein diacetate (FDA) permeates into active and intact cells and is hydrolyzed by intracellular esterases into a highly fluorescent green fluorescein when illuminated with a fluorescein isothiocyanate (FITC; blue) excitation filter set (emission wavelength […]). Propidium iodide (PI) is a nucleic acid dye that cannot permeate intact cell membranes and selectively stains the nuclei of dead cells or cells in late apoptotic stages. Stained nuclei omit red fluorescence under rhodamine (green) excitation (emission wavelength 650 nm). Live–dead cell assays followed the protocol described by Jones and Senft. The cells were observed using a Nikon TS100 inverted microscope (Nikon Europe B.V., Amstelveen, The Netherlands) with incident fluorescence optics. Images were captured at 200× magnification and digitalized with a Moticam 2300 camera (Roper Scientific Inc., Duluth, GA, USA; resolution 3 MP).
(§3) Live/dead cell staining was analyzed quantitatively. The number of PI-stained nuclei was counted manually using the cell counting option in the ImageJ software (V2 Fiji-win64, University of Nottingham).

[2] = as above; format: cell-based, human; conditions: human, 14 μM CPF, control 96.4%, p < 0.001, read-out: cell viability (live cells)
Procedure: as §1, §2, §3

GluN1-1a/GluN2B NMDAR = biological target: T1, GluN1-1a/GluN2B NMDAR (Rattus norvegicus, UniProt P35439+Q00960); experiment: TEVC electrophysiology of Xenopus oocytes expressing GluN1-1a/GluN2B; format: cell-based
T1 construct: expressed in transfected cells; host or cells: Xenopus laevis oocytes, injected with cRNA or plasmid DNA (pRK7 or pBluescript SK(-))
Procedure: (§4) Ovaries of mature female Xenopus laevis were supplied by the European Xenopus Resource Centre (University of Portsmouth, Portsmouth, UK). Upon receipt, oocytes were first separated with 1 mg/mL collagenase (Type 1A from Clostridium histolyticum; Sigma, Poole, UK) in Ca^2+-free Barth’s gentamicin–theophylline–pyruvate (GTP) solution (96 mM NaCl, 2 mM KCl, 1 mM MgCl2, 5 mM HEPES, 2.5 mM pyruvic acid, 0.5 mM theophylline, 50 μg/mL gentamicin, pH 7.5) on a shaker for approximately 45 min at room temperature. Oocytes were then rinsed with Ca^2+-free GTP solution six to eight times until a clear solution was obtained and incubated in normal Barth’s GTP solution (Ca^2+-free GTP with inclusion of 1.8 mM CaCl2) at ~4 °C for at least half an hour prior to microinjection.
(§5) Healthy oocytes at developmental stages IV and V were injected with 50 nL of cRNA (into the cytoplasm) or plasmid DNA (into the nucleus) at a concentration of ~100 ng/μL using a Nanolitre 2010 Injector (World Precision Instruments, Hitchin, UK). cRNA or DNA plasmids encoding the rat NMDAR subunits GluN1-1a and GluN2A or GluN1-1a and GluN2B were mixed at ratios of 1:1 (by weight) for injection. The cRNA was synthesized from linearized plasmid DNA (pRK7 or pBluscript SK(−)) containing the GluN-encoding genes using an Invitrogen mMessage mMachine kit (Thermo Fisher Scientific, Loughborough, UK). Injected oocytes were kept in normal Barth’s GTP solution at 19 °C for two to three days for expression of NMDAR subunits before recordings.
(§6) TEVC electrophysiology was used to assess the direct effects of CPF on NMDARs containing GluN1-1a and GluN2A or GluN1-1a and GluN2B subunits expressed in Xenopus oocytes. Pulled borosilicate glass capillaries (GC150TF-10, Harvard Apparatus, Cambridge, UK) (resistances 0.5–2 MΩ) were filled with 3 M KCl and used to impale injected oocytes for recording. Injected oocytes were continuously perfused with Mg^2+-free Xenopus Ringer solution (95 mM NaCl, 2 mM KCl, 2 mM CaCl2, 5 mM HEPES, pH 7.5) at a flow rate of 5 mL/min, with test compounds applied using a Valvelink 8 gravity-fed perfusion system (Automate Scientific, Berkeley, CA, USA). Recordings were performed at 20–25 °C and oocytes were clamped at −75 mV holding potential in all experiments. Output current responses were transferred to a PC via an analogue-to-digital (A/D) converter (National Instruments PCI-6014, Austin, TX, USA) and recorded in WinEDR V3.2.7 software (John Dempster, Strathclyde Electrophysiology Software, Strathclyde Institute of Pharmacy and Biomedical Sciences, University of Strathclyde, Strathclyde, UK). Current changes in response to NMDA/glycine when applied with CPF were normalized to the control current without CPF.
(§7) Results were expressed as means ± standard error of the mean (SEM). Statistical analysis was undertaken between concentrations using an independent samples Kruskal–Wallis test across cell culture conditions using IBM SPSS statistical software (version 26.0). […] EC50 and maximum response values were obtained using non-linear regression by fitting a four-parametric logistic equation to concentration–response plots in GraphPad Prism 10 (GraphPad Software Inc., La Jolla, CA, USA):(1) Y=Min+Max−Min/10^LogEC50−XS+1 where Y is the response to the agonist, X is the log10 concentration of the agonist, EC50 is the concentration of agonist that produces a half-maximum activation response, and S is the Hill slope. EC50s and maximum responses were compared for significant differences using an extra sum of squares F-test in GraphPad Prism 10.

GluN1-1a/GluN2A NMDAR = biological target: T2, GluN1-1a/GluN2A NMDAR (Rattus norvegicus, UniProt P35439+Q00959); experiment: TEVC electrophysiology of Xenopus oocytes expressing GluN1-1a/GluN2A; format: cell-based
T2 construct: expressed in transfected cells; host or cells: Xenopus laevis oocytes, injected with cRNA or plasmid DNA (pRK7 or pBluescript SK(-))
Procedure: as §4, §5, §6, §7

[3] = cited from earlier work
[4] = 10 μM CPF applied directly, −75 mV

T2 sequence (Q00959 20-1464 limits assumed, other chains not shown): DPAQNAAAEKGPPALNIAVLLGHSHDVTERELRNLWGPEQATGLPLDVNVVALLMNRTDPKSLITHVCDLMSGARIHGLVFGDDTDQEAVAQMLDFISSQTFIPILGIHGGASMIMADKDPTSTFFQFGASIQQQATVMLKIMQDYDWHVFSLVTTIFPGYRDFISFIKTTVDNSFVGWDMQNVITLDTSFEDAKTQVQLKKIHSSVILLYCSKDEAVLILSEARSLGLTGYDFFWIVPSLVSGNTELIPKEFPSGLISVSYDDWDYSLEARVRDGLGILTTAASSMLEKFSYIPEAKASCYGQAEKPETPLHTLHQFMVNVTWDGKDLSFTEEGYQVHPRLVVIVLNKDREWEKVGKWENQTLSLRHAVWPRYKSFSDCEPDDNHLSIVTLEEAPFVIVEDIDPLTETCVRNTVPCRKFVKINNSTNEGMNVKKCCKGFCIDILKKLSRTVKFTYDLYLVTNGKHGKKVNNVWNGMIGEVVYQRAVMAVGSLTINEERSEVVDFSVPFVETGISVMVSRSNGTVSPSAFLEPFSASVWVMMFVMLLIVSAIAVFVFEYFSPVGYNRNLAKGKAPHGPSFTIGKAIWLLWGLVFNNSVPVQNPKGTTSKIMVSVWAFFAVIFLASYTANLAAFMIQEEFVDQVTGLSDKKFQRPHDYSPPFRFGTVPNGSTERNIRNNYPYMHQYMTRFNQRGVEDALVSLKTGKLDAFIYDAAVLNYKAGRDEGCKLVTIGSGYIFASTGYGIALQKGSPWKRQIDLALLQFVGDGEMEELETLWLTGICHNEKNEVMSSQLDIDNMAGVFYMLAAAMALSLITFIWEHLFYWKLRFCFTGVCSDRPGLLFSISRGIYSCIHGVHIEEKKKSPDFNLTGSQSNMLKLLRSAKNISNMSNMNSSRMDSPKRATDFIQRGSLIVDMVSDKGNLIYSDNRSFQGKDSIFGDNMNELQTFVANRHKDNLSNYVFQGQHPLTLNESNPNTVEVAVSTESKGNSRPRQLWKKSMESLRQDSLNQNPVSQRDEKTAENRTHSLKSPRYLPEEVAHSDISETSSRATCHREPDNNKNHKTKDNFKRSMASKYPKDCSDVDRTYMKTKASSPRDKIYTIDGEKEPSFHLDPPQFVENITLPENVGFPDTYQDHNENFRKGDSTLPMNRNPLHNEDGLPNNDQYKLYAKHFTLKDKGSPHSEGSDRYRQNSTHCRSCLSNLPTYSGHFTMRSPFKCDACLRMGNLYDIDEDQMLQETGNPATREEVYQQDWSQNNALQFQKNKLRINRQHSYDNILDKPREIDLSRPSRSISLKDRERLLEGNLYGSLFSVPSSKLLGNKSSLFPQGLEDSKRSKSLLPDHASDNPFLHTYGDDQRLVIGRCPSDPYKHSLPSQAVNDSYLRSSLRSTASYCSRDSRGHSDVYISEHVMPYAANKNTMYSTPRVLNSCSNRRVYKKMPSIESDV
T1 sequence (Q00960 27-1482, other chains not shown): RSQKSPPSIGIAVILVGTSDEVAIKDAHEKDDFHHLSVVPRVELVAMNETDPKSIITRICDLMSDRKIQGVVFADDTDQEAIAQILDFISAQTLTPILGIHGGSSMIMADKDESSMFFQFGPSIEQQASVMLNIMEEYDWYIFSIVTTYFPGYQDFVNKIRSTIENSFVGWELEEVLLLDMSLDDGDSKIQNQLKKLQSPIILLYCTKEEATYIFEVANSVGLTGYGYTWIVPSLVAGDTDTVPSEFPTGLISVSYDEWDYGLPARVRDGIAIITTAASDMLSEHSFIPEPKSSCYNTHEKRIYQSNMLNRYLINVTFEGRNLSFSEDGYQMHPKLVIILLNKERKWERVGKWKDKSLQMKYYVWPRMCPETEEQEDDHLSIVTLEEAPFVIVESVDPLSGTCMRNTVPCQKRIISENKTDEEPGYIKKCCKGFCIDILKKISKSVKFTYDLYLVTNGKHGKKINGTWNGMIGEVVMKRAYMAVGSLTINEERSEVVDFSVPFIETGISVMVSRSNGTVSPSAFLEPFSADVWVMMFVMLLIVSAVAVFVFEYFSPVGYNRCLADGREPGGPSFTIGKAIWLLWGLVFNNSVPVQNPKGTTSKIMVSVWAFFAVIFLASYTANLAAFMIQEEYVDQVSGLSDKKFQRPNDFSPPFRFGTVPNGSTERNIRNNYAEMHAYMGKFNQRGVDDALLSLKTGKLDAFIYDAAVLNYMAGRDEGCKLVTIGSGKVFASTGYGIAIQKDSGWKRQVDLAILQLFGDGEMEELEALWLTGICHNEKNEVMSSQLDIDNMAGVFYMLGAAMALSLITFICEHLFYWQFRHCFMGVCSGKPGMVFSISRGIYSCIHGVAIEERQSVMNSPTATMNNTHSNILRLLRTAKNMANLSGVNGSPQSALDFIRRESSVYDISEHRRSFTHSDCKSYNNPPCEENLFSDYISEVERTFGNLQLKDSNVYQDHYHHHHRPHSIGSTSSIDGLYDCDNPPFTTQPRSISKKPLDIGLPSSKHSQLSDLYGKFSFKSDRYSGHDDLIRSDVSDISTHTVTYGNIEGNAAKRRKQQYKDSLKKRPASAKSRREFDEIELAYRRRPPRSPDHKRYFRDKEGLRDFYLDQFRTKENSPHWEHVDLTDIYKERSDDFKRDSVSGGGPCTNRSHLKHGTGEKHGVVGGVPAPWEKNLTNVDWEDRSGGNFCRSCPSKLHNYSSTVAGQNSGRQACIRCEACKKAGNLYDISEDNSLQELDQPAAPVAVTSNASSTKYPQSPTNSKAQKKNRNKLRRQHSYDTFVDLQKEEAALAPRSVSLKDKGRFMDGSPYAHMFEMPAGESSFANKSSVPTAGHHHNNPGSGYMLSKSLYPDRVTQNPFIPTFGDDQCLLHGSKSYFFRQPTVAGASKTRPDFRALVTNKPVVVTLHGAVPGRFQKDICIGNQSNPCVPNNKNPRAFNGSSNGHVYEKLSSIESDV

## CCOP(=S)(OCC)Oc1nc(Cl)c(Cl)cc1Cl [CPF, O,O-diethyl O-(3,5,6-trichloropyridin-2-yl) phosphorothioate]
[1]; 14 μM CPF
  cells transitioned to apoptosis: 18.7%
  dead cells: 3.91%
[2]
  viability at 24 h, 14 μM: 71.4%
GluN1-1a/GluN2B NMDAR
  EC50: ~0.055 µM
GluN1-1a/GluN2B NMDAR; [4]
  direct activation by CPF alone: resulted in NMDAR-mediated currents
GluN1-1a/GluN2B NMDAR; 10 μM CPF co-applied with 100 μM NMDA, n = 5, p < 0.05
  enhancement of current evoked by 100 μM NMDA: ~ 8.2 fold
GluN1-1a/GluN2A NMDAR
  EC50: ~0.04 µM
GluN1-1a/GluN2A NMDAR; 1 μM CPF co-applied with 10 μM glycine, n = 3, p < 0.05
  enhancement of current evoked by 10 μM glycine: ~ 1.7 fold
GluN1-1a/GluN2A NMDAR; [4]
  direct activation by CPF alone: resulted in NMDAR-mediated currents
[3]; conversion of 100 μg/kg/day as printed
  no observed adverse effect level (NOAEL), as concentration: ≈ 285 nM
[3]; set by European Food Safety Authority
  no observed adverse effect level (NOAEL): 100 µg/kg/day

## CC(C(O)c1ccc(O)cc1)N1CCC(Cc2ccccc2)CC1 (stereo not drawn) [IFN, ifenprodil, reference compound]
[1]; 25 μM IFN co-administered with 14 μM CPF, p < 0.001
  effect on CPF-induced decrease in cell viability: attenuated the CPF-induced decrease in ReNcell CX cell viability
GluN1-1a/GluN2B NMDAR; 100 μM IFN with 1 μM CPF, 10 μM NMDA, 10 μM Gly, −75 mV
  antagonism of CPF-induced potentiation of NMDA/glycine-evoked current: completely blocked

## C[C@]12N[C@H](Cc3ccccc31)c1ccccc12 [MK-801, reference compound]
GluN1-1a/GluN2A NMDAR; 10 μM MK-801 with 1 μM CPF, 10 μM NMDA, 10 μM Gly, −75 mV
  antagonism of CPF-induced potentiation of NMDA/glycine-evoked current: completely blocked

## CN[C@H](CC(=O)O)C(=O)O [NMDA, N-methyl-D-aspartate]
GluN1-1a/GluN2B NMDAR; 10 μM glycine, absence of CPF
  maximum response (percentage of the response to 1 mM NMDA): 103%
GluN1-1a/GluN2B NMDAR; 10 μM glycine, absence of CPF, n = 6, read-out: NMDA EC50
  EC50: 70 µM
GluN1-1a/GluN2A NMDAR; 10 μM glycine, absence of CPF
  maximum response (percentage of the response to 1 mM NMDA): 102%
GluN1-1a/GluN2A NMDAR; 10 μM glycine, absence of CPF, n = 5, read-out: NMDA EC50
  EC50: 57.9 µM
